Test results reported in patent publication US7029657B2, “Nasal spray steroid formulation and method” (Balance Pharmaceuticals, Inc., priority 2002, dated 2006).

Experiments:
[1] = cited from earlier work
[2] = test system: women with endometriosis; assay: Bone mineral density (BMD) of the lumbar spine by DEXA, ratio of 6 month to baseline; assay type: in vivo; conditions: deslorelin alone, another study
Protocol: Women with endometriosis treated with intranasal deslorelin (a GnRH compound) were assigned to one of three methods of estradiol add-back: (1) 50 μg/day estradiol transdermal patch, (2) 300 μg/day intranasal estradiol, or (3) 300 μg/day intranasal estradiol with 275 μg/day intranasal testosterone. Loss of bone mineral density (BMD) is a known side effect of treatment with GnRH compounds. Thus, BMD of the lumbar spine (L1–L4) of the test subjects in Example 4 was obtained bydual-energy X-ray absorptiometry (DEXA) prior to and after six months of treatment. The results are shown in Table 4 as the ratio of BMD at the six month time point (BMD6mo.) to the BMD prior to treatment (BMDbaseline).
Women with endometriosis treated with intranasal deslorelin (GnRH compound) were assigned to one of three methods of add-back: (1) 50 μg/day estradiol transdermal patch, (2) 300 μg/day intranasal estradiol, or (3) 300 μg/day intranasal estradiol with 275 μg/day intranasal testosterone. Bone mineral density (BMD) of the lumbar spine was obtained by dual-energy X-ray absorptiometry (DEXA) prior to and after six months of drug treatment. BMD changes are shown in Table 4 as the ratio of the 6 month value compared to the baseline value.

Structure (SMILES) | water solubility (at 25° C., g/100 mL) [1] | Ratio of 6 Month BMD to Baseline BMD, Mean [2]
OC[C@H]1O[C@@H]2O[C@H]3[C@H](O)[C@@H](O)[C@@H](O[C@H]4[C@H](O)[C@@H](O)[C@@H](O[C@H]5[C@H](O)[C@@H](O)[C@@H](O[C@H]6[C@H](O)[C@@H](O)[C@@H](O[C@H]7[C@H](O)[C@@H](O)[C@@H](O[C@H]8[C@H](O)[C@@H](O)[C@@H](O[C@H]9[C@H](O)[C@@H](O)[C@@H](O[C@H]%10[C@H](O)[C@@H](O)[C@@H](O[C@H]1[C@H](O)[C@H]2O)O[C@@H]%10CO)O[C@@H]9CO)O[C@@H]8CO)O[C@@H]7CO)O[C@@H]6CO)O[C@@H]5CO)O[C@@H]4CO)O[C@@H]3CO [δ-cyclodextrin] | 8.19 g/100 mL | 
CCNC(=O)[C@@H]1CCCN1C(=O)[C@H](CCCN=C(N)N)NC(=O)[C@H](CC(C)C)NC(=O)[C@@H](Cc1c[nH]c2ccccc12)NC(=O)[C@H](Cc1ccc(O)cc1)NC(=O)[C@H](CO)NC(=O)[C@H](Cc1c[nH]c2ccccc12)NC(=O)[C@H](Cc1cnc[nH]1)NC(=O)[C@@H]1CCC(=O)N1 [Deslorelin (D), deslorelin] |  | 0.971
